Experimental data published in publication PMC11091889, “Silver Organometallics that are Highly Potent Thioredoxin and Glutathione Reductase Inhibitors: Exploring the Correlations of Solution Chemistry with the Strong Antibacterial Effects” (ACS Infectious Diseases, 2024).
Like-named read-outs stand apart in the source and are kept apart here.

How the values were obtained:
[1] = system: K. pneumoniae (DSM 11678, ATCC33495); assay: Broth microdilution antibacterial assay; format: cell-based, Klebsiella pneumoniae
Procedure: (§1) The antibacterial effect of the silver NHC complexes and selected ligands was evaluated in two Gram-positive [Enterococcus faecium, methicillin resistant S. aureus, (MRSA)] and in four Gram-negative (Acinetobacter baumannii, Escherichia coli, Klebsiella pneumoniae, and Pseudomonas aeruginosa) pathogenic bacterial strains using broth microdilution assays. The resulting minimal inhibitory concentrations (MICs, Table 2) and EC50 (Table S6) were determined by a curve fitting procedure. Silver nitrate (AgNO3), SSD, and various antibiotics were used as references.
(§2) The following strains of ESKAPE panel were utilized and maintained at 37 °C in MHB (21 g/L Müller Hinton broth, pH 7.4) or TSY (30 g/L trypticase soy broth, 3 g/L yeast extract, pH 7.0–7.2) media: A. baumannii (DSM 30007, ATCC 19606), E. coli (DSM1116, ATCC 9637), K. pneumoniae (DSM 11678, ATCC33495), P. aeruginosa PA7 (DSM 24068) in MHB; E. faecium (DSM 20477, ATCC 19434), and S. aureus MRSA (DSM 11822, ICB 25701) in TSY. MIC values were determined following a standardized protocol in broth microdilution assays. The compounds and reference substances (AgNO3 and SSD) were serially diluted from 64 to 1 μg/mL. Starting inocula of 2–8 × 10^5 CFU/mL in MHB or TSY media at 37 °C were used, and serial dilutions were carried out in 96-well microtiter plates in duplicate. After incubation of the plates for 22 h at 37 °C, the absorbance at 600 nm was measured using The Spark multimode microplate reader (Tecan Trading AG). The MIC values for the tested compounds were determined in three independent experiments and presented in μM with standard errors and also in μg/mL. Amikacin (P. aeruginosa), linezolid (S. aureus), and ciprofloxacin (all other strains) served as positive controls. The MIC and EC50 values were determined by curve fitting with Sigma Plot. To determine the effect of the culture medium on the activity of silver compounds, the assay was performed using MHB, TSY, or DMEM (Gibco). To observe the effect of individual components of TSY medium, antibacterial tests were performed using MHB with addition of tryptone (17 g/L) or yeast extract (3 g/L, both were purchased from Sigma).

[2] = system: A. baumannii (DSM 30007, ATCC 19606); assay: Broth microdilution antibacterial assay; format: cell-based, Acinetobacter baumannii
Procedure: as §1, §2

[3] = system: E. faecium (DSM 20477, ATCC 19434); assay: Broth microdilution antibacterial assay; format: cell-based, Enterococcus faecium
Procedure: as §1, §2

[4] = Conductometry: molar conductivity of silver complexes in DMSO; format: physicochemical; details: 1.0 mM in DMSO, calculated as monocarbene (NHC)AgX
Procedure: Since both the neutral monocarbene and the ionic biscarbene form of the complexes may exist in various proportions in the solution, conductometry studies were performed to reveal the dominant structure. The molar conductivity of 1.0 mM solutions of each complex in DMSO was determined after different periods up to 24 h using AgNO3 as 1:1 electrolyte reference (see Table 1). According to the literature, the expected range of molar conductivity for 1:1 electrolytes in DMSO is 35–90 S cm^2 mol^–1.[45],[46]
Conductivity measurements were performed using an Apera Instruments EC9500 conductivity meter. Solutions (as indicated, otherwise 1.0 mM) of all compounds were prepared using freshly distilled DMSO with a specific electrical conductivity of ≤3 × 10^–8 S cm^–1. The conductivities were measured at 25 ± 2 °C immediately after complete dissolution and after 24 h.

[5] = system: P. aeruginosa PA7 (DSM 24068); assay: microbe, parasite or virus in culture; format: cell-based, Pseudomonas aeruginosa; details: for MIC: DSM24068, 22 h
Procedure: as §1, §2

[6] = system: E. coli (DSM1116, ATCC 9637); assay: microbe, parasite or virus in culture; format: cell-based, Escherichia coli
Procedure: as §1, §2

[7] = system: S. aureus MRSA (DSM 11822, ICB 25701); assay: microbe, parasite or virus in culture; format: cell-based, methicillin resistant S. aureus
Procedure: as §1
The importance of the culture medium used in antibacterial assays has been pointed out for antibiotics and in particular for silver.[53]−[55] In our recent studies, tryptic soy yeast (TSY) broth has been used for growing Gram-positive bacteria. Two components thereof, tryptone and yeast extract, have been reported to affect the antibacterial activity of silver nitrate.[55] Moreover, such an effect was also observed for other media containing at least one of those components.[11],[53] […] Silver nitrate served as a reference, and three different growth media were studied, namely, Müller-Hinton Broth (MHB, commonly used for Gram-negative bacteria), TSY broth (commonly used for Gram-positive bacteria), and DMEM supplemented with 10% FCS (commonly used for growth of mammalian and human cells).
as §2

[8] = mean ± standard error, n = 3, MHB, 22 h
[9] = mean ± standard error, n = 3, TSY, 22 h
[10] = mean ± standard error, n = 3, MHB
[11] = Klebsiella pneumoniae, 22 h, read-out: MIC K. pneumoniae
[12] = Klebsiella pneumoniae, 22 h, read-out: MIC K. pneumoniae (value in brackets)
[13] = Acinetobacter baumannii, 22 h, read-out: MIC A. baumannii
[14] = Acinetobacter baumannii, 22 h, read-out: MIC A. baumannii (value in brackets)
[15] = Enterococcus faecium, 22 h, read-out: MIC E. faecium, mean ± standard error, n = 3, TSY, 22 h
[16] = read-out: EC50 K. pneumoniae; mean ± standard error, n = 3, MHB
[17] = read-out: EC50 A. baumannii; mean ± standard error, n = 3, MHB
[18] = Enterococcus faecium, 22 h, read-out: MIC E. faecium (value in brackets)
[19] = read-out: EC50 E. faecium, mean ± standard error, n = 3, TSY
[20] = Pseudomonas aeruginosa, read-out: MIC P. aeruginosa (value in brackets), n = 3, MHB, 22 h
[21] = read-out: EC50 P. aeruginosa, mean ± standard error, n = 3, MHB
[22] = Escherichia coli, n = 3, MHB, 22 h, read-out: MIC E. coli (value in brackets)
[23] = mean ± standard error, n = 3, MHB, 22 h, read-out: MIC E. coli
[24] = Staphylococcus aureus, 22 h, read-out: MIC MRSA (value in brackets)
[25] = read-out: EC50 MRSA; mean ± standard error, n = 3, TSY

Row | Compound | MIC K. pneumoniae [1, 8] | MIC A. baumannii [2, 8] | MIC E. faecium [3, 9] | MIC P. aeruginosa [5, 8] | EC50 [6, 10] | MIC MRSA [7, 9] | MIC [1, 11] | MIC [1, 12] | MIC [2, 13] | MIC [2, 14] | MIC [3, 15] | EC50 [1, 16] | EC50 [2, 17] | MIC [3, 18] | EC50 [3, 19] | MIC [5, 20] | EC50 [5, 21] | MIC [6, 22] | MIC [6, 23] | MIC [7, 24] | other results
1 | CCn1[c](=[Ag][Br])n(Cc2ccccn2)c2ccccc21 [2b, Bromido (1-Ethyl-3-(pyridin-2-ylmethyl)-benzimidazol-2-ylidene) Silver(I)] | 15.7 ± 3.1 µM | 12.5 ± 3.1 µM | 151 ± 0.0 µM | 9.4 ± 0.0 µM | 35.6 ± 9.4 µM | 151 ± 0.0 µM | – | – | – | – | – | – | – | – | – | – | – | – | – | – | EC50 ([1]; mean ± standard error, n = 3, MHB; read-out: EC50 K. pneumoniae): 9 ± 1 µM; MIC K. pneumoniae (value in brackets) ([1]; n = 3, MHB, 22 h): 7 µg/mL; EC50 ([2]; mean ± standard error, n = 3, MHB; read-out: EC50 A. baumannii): 2.2 ± 0.3 µM; MIC A. baumannii (value in brackets) ([2]; n = 3, MHB, 22 h): 5 µg/mL; EC50 ([3]; mean ± standard error, n = 3, TSY, read-out: EC50 E. faecium): 128 ± 0.9 µM; MIC E. faecium (value in brackets) ([3]; n = 3, TSY, 22 h): 64 µg/mL; Molar conductivity ΛM ([4]; 1 h after dissolution): 5.47 S cm^2 mol^–^1; Molar conductivity ΛM ([4]; 24 h after dissolution): 5.07 S cm^2 mol^–^1; EC50 ([5]; mean ± standard error, n = 3, MHB, read-out: EC50 P. aeruginosa): 6.9 ± 0.5 µM; MIC P. aeruginosa (value in brackets) ([5]; n = 3, MHB, 22 h): 4 µg/mL; MIC E. coli [6, 8]: 50.2 ± 12.5 µM; MIC E. coli (value in brackets) ([6]; n = 3, MHB, 22 h): 21 µg/mL; EC50 ([7]; mean ± standard error, n = 3, TSY; read-out: EC50 MRSA): 88.5 ± 1.6 µM; MIC MRSA (value in brackets) ([7]; n = 3, TSY, 22 h): 64 µg/mL
2 | O=C(O)c1cn(C2CC2)c2cc(N3CCNCC3)c(F)cc2c1=O [ciprofloxacin, reference compound] | – | – | – | – | – | – | 2.5 ± 0.9 µM | 0.8 µg/mL | 0.63 ± 0.22 µM | 0.2 µg/mL | 15.1 ± 1 µM | – | – | – | – | – | – | – | – | – | MIC ([3]; Enterococcus faecium, 22 h, read-out: MIC E. faecium (value in brackets), n = 3, TSY, 22 h): 5 µg/mL; MIC ([6]; Escherichia coli, 22 h, read-out: MIC E. coli): 0.5 µM; MIC ([6]; Escherichia coli, 22 h, read-out: MIC E. coli (value in brackets)): 0.16 µg/mL; MIC ([6]; Escherichia coli, read-out: MIC E. coli DSM 1116 in MHB): 0.47 µM; MIC ([6]; Escherichia coli, read-out: MIC E. coli DSM 1116 in MHB + tryptone): 0.47 µM; MIC ([6]; Escherichia coli, read-out: MIC E. coli DSM 1116 in MHB + yeast extract): 0.47 µM
3 | CC(C)[n+]1cn(Cc2ccccn2)c2ccccc21.[I-] [L3c, 1-Isopropyl-3-(pyridin-2-ylmethyl)-benzimidazolium Iodide] | > 250 µM | > 250 µM | > 250 µM | ≥ 250 µM | > 250 µM | > 250 µM | – | > 128 µg/mL | – | > 128 µg/mL | – | > 250 µM | > 250 µM | > 128 µg/mL | > 250 µM | > 128 µg/mL | ≥ 250 µM | > 128 µg/mL | > 250 µM | > 128 µg/mL | EC50 [7, 25]: > 250 µM
4 | CC(C)[n+]1cn(Cc2ccccn2)c2ccccc21.[Cl-] [L3a, 1-Isopropyl-3-(pyridin-2-ylmethyl)-benzimidazolium Chloride] | – | – | – | – | – | – | > 250 µM | > 128 µg/mL | > 250 µM | > 128 µg/mL | – | – | – | > 128 µg/mL | – | > 128 µg/mL | – | > 128 µg/mL | – | > 128 µg/mL | EC50 ([1]; Klebsiella pneumoniae, read-out: EC50 K. pneumoniae): > 250 µM; EC50 ([2]; Acinetobacter baumannii, read-out: EC50 A. baumannii): > 250 µM; MIC ([3]; Enterococcus faecium, 22 h, read-out: MIC E. faecium): > 250 µM; EC50 ([3]; Enterococcus faecium, read-out: EC50 E. faecium, mean ± standard error, n = 3, TSY): > 250 µM; MIC ([5]; Pseudomonas aeruginosa, read-out: MIC P. aeruginosa, mean ± standard error, n = 3, MHB, 22 h): > 250 µM; EC50 ([5]; Pseudomonas aeruginosa, DSM24068, read-out: EC50 P. aeruginosa, mean ± standard error, n = 3, MHB): > 250 µM; EC50 ([6]; Escherichia coli, mean ± standard error, n = 3, MHB): > 250 µM; MIC ([6]; Escherichia coli, mean ± standard error, n = 3, MHB, 22 h, read-out: MIC E. coli): > 250 µM; MIC ([7]; Staphylococcus aureus, 22 h, read-out: MIC MRSA): > 250 µM; EC50 ([7]; Staphylococcus aureus, read-out: EC50 MRSA): > 250 µM
5 | NCC[C@H](O)C(=O)N[C@@H]1C[C@H](N)[C@@H](O[C@H]2O[C@H](CN)[C@@H](O)[C@H](O)[C@H]2O)[C@H](O)[C@H]1O[C@H]1O[C@H](CO)[C@@H](O)[C@H](N)[C@H]1O [amikacin, reference compound] | – | – | – | – | – | – | – | – | – | – | – | – | – | – | – | – | – | – | – | – | MIC ([5]; Pseudomonas aeruginosa, read-out: MIC P. aeruginosa): 4.4 ± 1.3 µM; MIC ([5]; Pseudomonas aeruginosa, read-out: MIC P. aeruginosa (value in brackets)): 2.6 µg/mL
6 | CC(C)[n+]1cn(Cc2ccccn2)c2ccccc21.[Br-] [L3b, 1-Isopropyl-3-(pyridin-2-ylmethyl)-benzimidazolium Bromide] | > 250 µM | > 250 µM | – | > 250 µM | > 250 µM | > 250 µM | – | > 128 µg/mL | – | ≥ 128 µg/mL | ≥ 250 µM | > 250 µM | > 250 µM | – | ≥ 250 µM | > 128 µg/mL | > 250 µM | > 128 µg/mL | > 250 µM | > 128 µg/mL | EC50 [7, 25]: > 250 µM
